# Data taken from US10800791B2, “Triazole ACC inhibitors and uses thereof” (Gilead Apollo, LLC, priority 2015, dated 2020).
# Like-named read-outs stand apart in the source and are kept apart here.
# Experiments:
# [1] = system: C. parapsilosis; assay: Antifungal Activity Assay (broth microtiter MIC), C. parapsilosis; assay type: cell-based, Candida parapsilosis; details: Lodderomyces parapsilosis, ATCC22019, 48 h
# How it was run: (§1)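 MIC read by eye at 48 h, comparing challenged wells with the growth control. Yeasts grown overnight on Sabouraud dextrose agar at 35° C, suspended in RPMI 1640+MOPS and added at 2.5×10^3 CFU/mL final, following CLSI M27-A3.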
# [2] = system: Phytophthora capsici (Pc); assay: Growth inhibition assay of fungal pathogens, Pc; assay type: cell-based; details: 48 h
# How it was run: (§2)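 Spores from sub-cultured plates were diluted in 17% V8 liquid medium and exposed to compound from DMSO stocks at final concentrations of 50, 10 and 2 ppm or 2, 0.4 and 0.08 ppm. OD600 and visual ratings at 48 h were compared with the 2% DMSO control to give percent growth inhibition.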
# [3] = system: Rhizoctonia solani (Rs); assay: Growth inhibition assay of fungal pathogens, Rs; assay type: cell-based; details: 48 h
# [4] = biological target: human (hACC2) (Homo sapiens, UniProt O00763); assay: In vitro ACC inhibition assay (ADP-Glo), hACC2; assay type: biochemical; details: 5 nM ACC2, 20 μM ATP, 20 μM acetyl-CoA
# Method: The detailed procedure is as follows. […] 10 μL ADP glo reagent was added. […] 20 μL kinase detection reagent was added.
# [5] = system: C. krusei; assay: Antifungal Activity Assay (broth microtiter MIC), C. krusei; assay type: cell-based, Candida krusei; details: Pichia kudriavzevii, ATCC6258, 48 h
# How it was run: as §1
# [6] = system: Botrtyis cinerea (Bc); assay: Growth inhibition assay of fungal pathogens, Bc; assay type: cell-based; details: 48 h
# How it was run: as §2
# [7] = system: Fusarium virguliforme (Fv); assay: Growth inhibition assay of fungal pathogens, Fv; assay type: cell-based; details: 48 h
# How it was run: as §2
# [8] = system: Septoria tritici (St); assay: Growth inhibition assay of fungal pathogens, St; assay type: cell-based; details: Zymoseptoria tritici, 48 h
# How it was run: as §2
# [9] = system: Fusarium moniliforme (Fm); assay: Growth inhibition assay of fungal pathogens, Fm; assay type: cell-based; details: for IC90: Fusarium verticillioides, 48 h, read-out: Concentration at 90% Inhibition Fm
# How it was run: as §2
# [10] = Fusarium moniliforme, growth inhibition at 48 hours vs 2% DMSO control
# [11] = Table 3a, ATCC 22019, 3 replicates, MIC recorded at 48 h, read-out: MIC, C. parapsilosis ATCC 22019
# [12] = Table 3b (additional results), ATCC 22019, 3 replicates, MIC recorded at 48 h, read-out: MIC, C. parapsilosis ATCC 22019
# [13] = growth inhibition at 48 hours vs 2% DMSO control, read-out: Concentration at 90% Inhibition Pc
# [14] = growth inhibition vs 2% DMSO control at 48 hours, read-out: Concentration at 90% Inhibition Pc
# [15] = mycelial plugs, growth inhibition at 48 hours vs 2% DMSO control, read-out: Concentration at 90% Inhibition Rs
# [16] = mycelial plugs, growth inhibition vs 2% DMSO control at 48 hours, read-out: Concentration at 90% Inhibition Rs
# [17] = Table 3a, ATCC 6258, 3 replicates, MIC recorded at 48 h, read-out: MIC, C. krusei ATCC 6258
# [18] = Table 3b (additional results), ATCC 6258, 3 replicates, MIC recorded at 48 h, read-out: MIC, C. krusei ATCC 6258
# [19] = Botrtyis cinerea, growth inhibition at 48 hours vs 2% DMSO control, read-out: Concentration at 90% Inhibition Bc
# [20] = Botrtyis cinerea, growth inhibition vs 2% DMSO control at 48 hours, read-out: Concentration at 90% Inhibition Bc
# [21] = growth inhibition at 48 hours vs 2% DMSO control, read-out: Concentration at 90% Inhibition Fv
# [22] = growth inhibition vs 2% DMSO control at 48 hours, read-out: Concentration at 90% Inhibition Fv
# [23] = Septoria tritici, growth inhibition at 48 hours vs 2% DMSO control, read-out: Concentration at 90% Inhibition St
# [24] = Septoria tritici, growth inhibition vs 2% DMSO control at 48 hours, read-out: Concentration at 90% Inhibition St
# [25] = Fusarium moniliforme, growth inhibition vs 2% DMSO control at 48 hours
# Chain of human (hACC2) (O00763 whole entry): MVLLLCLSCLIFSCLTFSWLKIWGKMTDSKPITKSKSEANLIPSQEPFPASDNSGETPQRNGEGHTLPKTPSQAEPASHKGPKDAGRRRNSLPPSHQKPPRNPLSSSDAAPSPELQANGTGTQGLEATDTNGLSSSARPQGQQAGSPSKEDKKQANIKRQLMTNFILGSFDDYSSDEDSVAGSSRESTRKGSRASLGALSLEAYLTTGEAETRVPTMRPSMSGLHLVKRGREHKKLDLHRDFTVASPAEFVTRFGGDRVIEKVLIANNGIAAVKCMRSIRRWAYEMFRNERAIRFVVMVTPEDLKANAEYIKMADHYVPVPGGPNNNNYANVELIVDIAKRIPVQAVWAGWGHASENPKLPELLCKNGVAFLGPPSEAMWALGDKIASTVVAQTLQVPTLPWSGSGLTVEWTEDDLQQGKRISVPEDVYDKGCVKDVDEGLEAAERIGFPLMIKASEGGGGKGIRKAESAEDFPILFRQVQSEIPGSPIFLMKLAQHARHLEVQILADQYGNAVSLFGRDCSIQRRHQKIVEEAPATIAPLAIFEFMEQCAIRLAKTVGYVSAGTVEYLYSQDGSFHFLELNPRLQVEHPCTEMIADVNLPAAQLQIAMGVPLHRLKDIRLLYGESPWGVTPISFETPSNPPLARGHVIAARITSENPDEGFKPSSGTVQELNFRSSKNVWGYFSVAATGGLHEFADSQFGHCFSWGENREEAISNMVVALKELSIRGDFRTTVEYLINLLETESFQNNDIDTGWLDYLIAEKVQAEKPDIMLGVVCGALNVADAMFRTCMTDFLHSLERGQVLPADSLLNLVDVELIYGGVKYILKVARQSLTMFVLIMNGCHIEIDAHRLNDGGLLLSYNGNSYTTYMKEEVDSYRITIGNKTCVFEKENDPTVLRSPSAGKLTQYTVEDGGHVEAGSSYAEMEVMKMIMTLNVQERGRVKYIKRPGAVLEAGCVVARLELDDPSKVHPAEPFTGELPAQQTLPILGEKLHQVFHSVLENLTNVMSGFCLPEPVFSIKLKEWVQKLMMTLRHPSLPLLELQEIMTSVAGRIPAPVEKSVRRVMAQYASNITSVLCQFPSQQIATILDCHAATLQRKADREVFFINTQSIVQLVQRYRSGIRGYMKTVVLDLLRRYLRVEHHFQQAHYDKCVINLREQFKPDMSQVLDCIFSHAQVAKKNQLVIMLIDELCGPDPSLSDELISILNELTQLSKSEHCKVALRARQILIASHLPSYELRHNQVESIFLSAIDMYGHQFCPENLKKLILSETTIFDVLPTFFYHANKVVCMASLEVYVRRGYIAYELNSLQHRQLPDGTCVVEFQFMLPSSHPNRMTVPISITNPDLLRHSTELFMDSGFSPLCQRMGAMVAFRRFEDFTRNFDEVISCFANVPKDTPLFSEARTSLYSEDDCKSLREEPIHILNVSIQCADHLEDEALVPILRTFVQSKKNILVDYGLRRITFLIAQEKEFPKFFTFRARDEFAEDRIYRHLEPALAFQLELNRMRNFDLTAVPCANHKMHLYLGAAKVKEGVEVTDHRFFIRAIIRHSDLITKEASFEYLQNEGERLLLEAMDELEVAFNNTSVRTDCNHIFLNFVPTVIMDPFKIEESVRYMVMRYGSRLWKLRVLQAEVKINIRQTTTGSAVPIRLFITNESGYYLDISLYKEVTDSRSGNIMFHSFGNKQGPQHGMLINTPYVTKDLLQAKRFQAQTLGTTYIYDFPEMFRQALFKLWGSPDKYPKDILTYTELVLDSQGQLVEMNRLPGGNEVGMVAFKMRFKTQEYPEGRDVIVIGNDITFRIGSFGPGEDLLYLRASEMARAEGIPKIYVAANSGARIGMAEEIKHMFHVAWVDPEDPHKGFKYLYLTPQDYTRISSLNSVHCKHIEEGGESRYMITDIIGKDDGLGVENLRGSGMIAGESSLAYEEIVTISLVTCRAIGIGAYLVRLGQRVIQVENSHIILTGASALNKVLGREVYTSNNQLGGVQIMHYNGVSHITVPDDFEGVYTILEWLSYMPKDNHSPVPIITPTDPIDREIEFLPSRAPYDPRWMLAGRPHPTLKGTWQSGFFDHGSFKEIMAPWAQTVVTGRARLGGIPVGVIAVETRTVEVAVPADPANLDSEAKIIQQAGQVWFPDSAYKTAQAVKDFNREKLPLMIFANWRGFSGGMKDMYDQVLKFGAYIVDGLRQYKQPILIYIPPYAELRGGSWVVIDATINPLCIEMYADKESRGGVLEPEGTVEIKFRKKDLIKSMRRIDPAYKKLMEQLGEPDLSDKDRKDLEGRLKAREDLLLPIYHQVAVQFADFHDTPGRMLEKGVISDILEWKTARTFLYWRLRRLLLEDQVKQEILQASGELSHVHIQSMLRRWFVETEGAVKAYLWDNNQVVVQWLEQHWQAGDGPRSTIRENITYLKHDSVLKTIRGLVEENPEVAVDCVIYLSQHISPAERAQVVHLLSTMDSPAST
IC50 ([4]; Table 2a) [nM],"IC50 ([4]; Table 2b, additional results) [nM]","MIC [1, 11] [µg/mL]","MIC [1, 12] [µg/mL]","MIC [5, 17] [µg/mL]","MIC [5, 18] [µg/mL]",SMILES,"IC90 [2, 13] [µg/mL]","IC90 [2, 14] [µg/mL]","IC90 [3, 15] [µg/mL]","IC90 [3, 16] [µg/mL]","IC90 [6, 19] [µg/mL]","IC90 [6, 20] [µg/mL]","IC90 [7, 21] [µg/mL]","IC90 [7, 22] [µg/mL]","IC90 [8, 23] [µg/mL]","IC90 [8, 24] [µg/mL]","IC90 [9, 10] [µg/mL]","IC90 [9, 25] [µg/mL]",other results
10 to 40,10 to 40,2.1 to 4,1.01 to 2,2.1 to 4,1.01 to 2,"COc1ccc(F)cc1[C@H](Cn1c(=O)n(C(C)(C)C(=O)N2CC(O)C2)c(=O)c2c(C)c(-n3nccn3)sc21)OC1CCOCC1 [Compound I-26, (R)-1-(2-(5-fluoro-2-methoxyphenyl)-2-((tetrahydro-2H-pyran-4-yl)oxy)ethyl)-3-(1-(3-hydroxyazetidin-1-yl)-2-methyl-1-oxopropan-2-yl)-5-methyl-6-(2H-1,2,3-triazol-2-yl)thieno[2,3-d]pyrimidine-2,4(1H,3H)-dione]",> 50,> 50,10,> 50,2,2,2,2,> 50,> 50,0.4,0.4,
5 to 10,5 to 10,1.1 to 2,2.01 to 4,0.25 to 1,0.25 to 1,"COc1ccc(F)cc1[C@H](Cn1c(=O)n(C(C)(C)C(N)=O)c(=O)c2c(C)c(-n3nccn3)sc21)OC1CCC(=O)CC1 [Compound I-31, (R)-2-(1-(2-(5-fluoro-2-methoxyphenyl)-2-((4-oxocyclo-hexyl)oxy)ethyl)-5-methyl-2,4-dioxo-6-(2H-1,2,3-triazol-2-yl)-1,4-dihydrothieno[2,3-d]pyrimidin-3(2H)-yl)-2-methylpropanamide]",> 50,> 50,2,2,0.4,0.4,10,> 50,> 50,> 50,0.4,0.4,

SMILES,IC50 ([4]; Table 2a) [nM],"IC50 ([4]; Table 2b, additional results) [nM]","MIC [1, 11] [µg/mL]","MIC [1, 12] [µg/mL]","MIC [5, 17] [µg/mL]","MIC [5, 18] [µg/mL]","IC90 [2, 13] [µg/mL]","IC90 [2, 14] [µg/mL]","IC90 [3, 15] [µg/mL]","IC90 [3, 16] [µg/mL]","IC90 [6, 19] [µg/mL]","IC90 [6, 20] [µg/mL]","IC90 [7, 21] [µg/mL]","IC90 [7, 22] [µg/mL]","IC90 [8, 23] [µg/mL]","IC90 [8, 24] [µg/mL]","IC90 [9, 10] [µg/mL]","IC90 [9, 25] [µg/mL]",other results
"COc1ccc(F)cc1[C@H](Cn1c(=O)n(C(C)(C)C(=O)N2CCCCC2)c(=O)c2c(C)c(-n3nccn3)sc21)OC1CCOCC1 [Compound I-24, (R)-1-(2-(5-fluoro-2-methoxyphenyl)-2-((tetrahydro-2H-pyran-4-yl)oxy)ethyl)-5-methyl-3-(2-methyl-1-oxo-1-(piperidin-1-yl)propan-2-yl)-6-(2H-1,2,3-triazol-2-yl)thieno[2,3-d]pyrimidine-2,4(1H,3H)-dione]",10 to 40,10 to 40,,,,,,,,,,,,,,,,,"MIC ([1]; read-out: MIC, C. parapsilosis ATCC 22019, Table 3a, 3 replicates, MIC recorded at 48 h): 0.25 to 1 µg/mL; MIC ([1]; read-out: MIC, C. parapsilosis ATCC 22019, Table 3b (additional results), 3 replicates, MIC recorded at 48 h): 0.25 to 1 µg/mL; IC90 ([2]; read-out: Concentration at 90% Inhibition Pc, Phytophthora capsici, growth inhibition at 48 hours vs 2% DMSO control): > 50 µg/mL; IC90 ([2]; read-out: Concentration at 90% Inhibition Pc, Phytophthora capsici, growth inhibition vs 2% DMSO control at 48 hours): > 50 µg/mL; IC90 ([3]; read-out: Concentration at 90% Inhibition Rs, Rhizoctonia solani, mycelial plugs, growth inhibition at 48 hours vs 2% DMSO control): 0.08 µg/mL; IC90 ([3]; read-out: Concentration at 90% Inhibition Rs, Rhizoctonia solani, mycelial plugs, growth inhibition vs 2% DMSO control at 48 hours): 0.08 µg/mL; MIC ([5]; read-out: MIC, C. krusei ATCC 6258, Table 3a, 3 replicates, MIC recorded at 48 h): 0.25 to 1 µg/mL; MIC ([5]; read-out: MIC, C. krusei ATCC 6258, Table 3b (additional results), 3 replicates, MIC recorded at 48 h): 0.25 to 1 µg/mL; IC90 ([6]; read-out: Concentration at 90% Inhibition Bc, Botrtyis cinerea, growth inhibition at 48 hours vs 2% DMSO control): 0.4 µg/mL; IC90 ([6]; read-out: Concentration at 90% Inhibition Bc, Botrtyis cinerea, growth inhibition vs 2% DMSO control at 48 hours): 0.4 µg/mL; IC90 ([7]; read-out: Concentration at 90% Inhibition Fv, Fusarium virguliforme, growth inhibition at 48 hours vs 2% DMSO control): 0.4 µg/mL; IC90 ([7]; read-out: Concentration at 90% Inhibition Fv, Fusarium virguliforme, growth inhibition vs 2% DMSO control at 48 hours): 0.4 µg/mL; IC90 ([8]; read-out: Concentration at 90% Inhibition St, Septoria tritici, growth inhibition at 48 hours vs 2% DMSO control): 2 µg/mL; IC90 ([8]; read-out: Concentration at 90% Inhibition St, Septoria tritici, growth inhibition vs 2% DMSO control at 48 hours): 10 µg/mL; Concentration at 90% Inhibition Fm [9, 10]: AA (compound concentration of 0.08 ppm at 90% inhibition of fungal pathogens); IC90 [9]: 0.08 µg/mL"
